These results are taken from patent US20230373934A1, “ANDROGEN RECEPTOR MODULATORS AND METHODS FOR THEIR USE” (ESSA Pharma, Inc., priority 2022, published 2023).

By IC50 is commonly meant the midpoint of a concentration-inhibition curve.

Series [1] concerns the target T1, androgen receptor (AR) (Homo sapiens, UniProt P10275, T878A).
T1 construct: endogenous in cells; host or cells: LNCaP
T1 sequence (P10275 1-920 T878A): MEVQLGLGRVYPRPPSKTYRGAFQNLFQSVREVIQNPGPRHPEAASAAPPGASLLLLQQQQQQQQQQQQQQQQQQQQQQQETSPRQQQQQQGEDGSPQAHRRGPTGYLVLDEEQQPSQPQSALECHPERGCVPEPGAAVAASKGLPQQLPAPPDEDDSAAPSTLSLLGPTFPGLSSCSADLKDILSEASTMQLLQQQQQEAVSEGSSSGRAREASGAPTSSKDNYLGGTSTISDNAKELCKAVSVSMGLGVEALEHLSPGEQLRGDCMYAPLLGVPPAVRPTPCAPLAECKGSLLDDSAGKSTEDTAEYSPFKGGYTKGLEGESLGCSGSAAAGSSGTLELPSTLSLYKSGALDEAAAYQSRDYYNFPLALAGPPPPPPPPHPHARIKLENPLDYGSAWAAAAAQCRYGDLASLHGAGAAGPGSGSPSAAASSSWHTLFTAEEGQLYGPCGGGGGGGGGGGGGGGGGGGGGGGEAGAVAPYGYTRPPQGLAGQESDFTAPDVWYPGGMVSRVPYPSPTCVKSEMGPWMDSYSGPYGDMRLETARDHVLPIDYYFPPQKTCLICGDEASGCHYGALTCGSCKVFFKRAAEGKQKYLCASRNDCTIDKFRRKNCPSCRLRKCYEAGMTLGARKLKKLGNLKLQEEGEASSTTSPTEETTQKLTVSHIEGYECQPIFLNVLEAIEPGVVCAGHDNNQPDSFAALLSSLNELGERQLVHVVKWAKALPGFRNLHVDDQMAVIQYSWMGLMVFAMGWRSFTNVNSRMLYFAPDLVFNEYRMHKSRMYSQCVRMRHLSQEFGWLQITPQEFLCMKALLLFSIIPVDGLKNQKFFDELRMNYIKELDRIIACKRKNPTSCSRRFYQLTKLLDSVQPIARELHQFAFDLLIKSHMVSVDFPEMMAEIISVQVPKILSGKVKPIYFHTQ
Description: Androgen-induced PSA-luciferase assay, Luciferase Assay A (LNCaP transiently transfected with PSA (6.1 kb)-luciferase reporter). It counts as cell-based. The settings on record: LNCaP cells, 1 h pretreatment, R1881 (1 nM) 24 h, read-out: PSA-Luc IC50 Range. The gist of the method:
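LNCaP cells transfected 24 h with PSA (6.1 kb)-luciferase reporter, pretreated 1 h with compound, then stimulated 24 h with R1881 (1 nM). Firefly luminescence in lysates normalized to protein content; IC50 from activity relative to R1881-induced vehicle control.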
(In general: In a reporter assay the amount or activity of a reporter protein is the signal.)

Series [2] in a line: Microsomal stability assay, liver microsome half-life (monkey). It counts as in vitro ADME. The settings on record: pH 7.4; monkey liver microsomes 0.5 mg/mL + NADPH, 1 μM compound, 37° C; read-out: Liver microsome + NADPH T½ (min) Monkey. The text has this:
(§1) Microsomal Stability Assay: Microsomal stability assay is a widely used in vitro model to characterize the metabolic conversion by phase I enzymes, such as cytochrome P450 (CYP) enzymes. Since metabolism is known to be highly variable in different species, microsomal stability assay is commonly run in multiple species. Metabolic stability of testing compound can be evaluated using human, rat, mouse, or other animal liver or intestine microsomes to predict intrinsic clearance.
(§2) The assay was carried out in 96-well microtiter plates at 37° C. Reaction mixtures (25 μL) contained a final concentration of 1 μM test compound, 0.5 mg/mL liver microsomes protein, and 1 mM NADPH and/or 1 mM UDPGA (with alamethicin) in 100 mM potassium phosphate, pH 7.4 buffer with 3 mM MgCl2. The incubation was done with N=1, but duplicate incubation at each time point can be prepared if necessary. At each of the time points (for example, 0, 15, 30, and 60 minutes), 150 μL of quench solution (100% acetonitrile with 0.1% formic acid) with internal standard was transferred to each well. Besides the zero minute controls, mixtures containing the same components except the NADPH can also be prepared as the negative control. Verapamil was included as a positive control to verify assay performance. Plates were sealed, vortexed, and centrifuged at 4° C. for 15 minutes at 4000 rpm. The supernatant is transferred to fresh plates for LC/MS/MS analysis.
(§3) Summarized conditions: [Compound]=1 μM, [LM]=0.5 mg/mL, [NADPH]=1 mM and/or [UDPGA]=1 mM, Buffer=100 mM Potassium Phosphate, pH 7.4 with 3 mM MgCl2, Time=0, 15, 30, and 60 min, and Temperature=37° C.
(§4) All samples were analyzed on LC/MS/MS using an AB Sciex API 4000 instrument, coupled to a Shimadzu LC-20AD LC Pump system. Analytical samples were separated using a Waters Atlantis T3 dC18 reverse phase HPLC column (20 mm×2.1 mm) at a flow rate of 0.5 mL/min. The mobile phase consisted of 0.1% formic acid in water (solvent A) and 0.1% formic acid in 100% acetonitrile (solvent B).
(§5) The extent of metabolism is calculated as the disappearance of the test compound, compared to the 0-min time incubation. Initial rates are calculated for the compound concentration and used to determine half-life (t1/2).
In general terms: Microsomes from liver hold many membrane-bound enzymes, among them those of drug oxidation.

Series [3] is described as follows: Microsomal stability assay, liver microsome half-life (dog). Type of series: in vitro ADME. The settings on record: pH 7.4; dog liver microsomes 0.5 mg/mL + NADPH, 1 μM compound, 37° C; read-out: Liver microsome + NADPH T½ (min) Dog.
Description: as §1, §2, §3, §4, §5

The nature of series [4]: Microsomal stability assay, liver microsome half-life (human). Type of series: in vitro ADME. The settings on record: pH 7.4; human liver microsomes 0.5 mg/mL + NADPH, 1 μM compound, 37° C; read-out: Liver microsome + NADPH T½ (min) Human.
Description: as §1, §2, §3, §4, §5

The nature of series [5]: Microsomal stability assay, liver microsome half-life (rat). The settings on record: pH 7.4; rat liver microsomes 0.5 mg/mL + NADPH, 1 μM compound, 37° C; read-out: Liver microsome + NADPH T½ (min) Rat. It counts as in vitro ADME.
Description: as §1, §2, §3, §4, §5

Series [6] is described as follows: Microsomal stability assay, liver microsome half-life (mouse). The settings on record: pH 7.4; mouse liver microsomes 0.5 mg/mL + NADPH, 1 μM compound, 37° C; read-out: Liver microsome + NADPH T½ (min) Mouse. It counts as in vitro ADME.
Description: as §1, §2, §3, §4, §5

The target of series [7] is T2, androgen receptor (AR) (Homo sapiens, UniProt P10275).
T2 sequence (P10275 1-920 T878A): T1 sequence (P10275 1-920 T878A)
Description: Androgen-induced PSA-luciferase assay, Luciferase Assay B (cells stably expressing ARR2PB or PSA-firefly luciferase reporter, 384-well). Type of series: cell-based. The settings on record: Luciferase Assay B (Compounds A186-A219 and A221-A245); stable luciferase reporter cells, 1 h pretreatment, R1881 24 h, serum-free; read-out: PSA-Luc IC50 Range. As to the method: Luciferase Assay B: Cells stably expressing probasin promoter (ARR2PB) or human prostate-specific antigen (PSA)-firefly luciferase reporter were plated in poly-D-lysine-coated 384-well plates. 48 h after plating, cells were pretreated with vehicle or compounds for 1 h before adding R1881 under serum-free and phenol red-free conditions and then further incubated for 24 h. R1881 was added only for LNCaP cells. Firefly luciferase activities were determined by EnVision plate reader (Perkinemer) using the Steady-Glo Luciferase Reporter Assay System (Promega). Values were normalized to protein content. GraphPad Prism graphing software was used to calculate IC50 values. Luciferase Assay B was run for Compounds A186-A219 and A221-A245 in Table 2.
Statistical analyses were performed using GraphPad Prism (Version 6.01 for Windows; La Jolla, CA, USA). Comparisons between treatment and control groups were compared using Two-Way ANOVA with post-hoc Dunnett's and Tukey's tests. Differences were considered statistically significant at P values less than 0.05.

On to `CC(C)(c1ccc(-c2ccc(CNS(C)(=O)=O)nc2)cc1)c1cc(Cl)c(OCCCl)c(C#N)c1` [Compound A1], for which the IC50 on androgen receptor (AR) [1] fell in the range of 500 to 2000 nM. The half-life at 1 μM in series [2] is more than 120 min; in series [3], 62 min; in series [4] it was more than 120 min; in series [5] it was 61 min; in series [6], more than 120 min.

Turning to `CC(C)(c1ccc(-c2ccc(N3CC(NS(C)(=O)=O)C3)nc2)cc1)c1cc(Cl)c(OCCCl)c(C#N)c1` [Compound A11], at androgen receptor (AR) [1], the IC50 lay within 500 to 2000 nM. The half-life at 1 μM in series [2] was 28 min; in series [3], more than 120 min; in series [4], 58 min; in series [5], 103 min; in series [6] it was more than 120 min.

`CC(C)(c1ccc(-c2cnn(CCNS(C)(=O)=O)c2)cc1)c1cc(Cl)c(OCCCl)c(C#N)c1` [Compound A12]: the IC50 on androgen receptor (AR) [1] lay within 500 to 2000 nM. For the same compound, the half-life at 1 μM in series [2] was 19 min; in series [3], more than 120 min; in series [4], 82 min; in series [5], 72 min; in series [6], more than 120 min.

Turning to `CC(C)(c1ccc(OC[C@H]2C[C@H](NS(C)(=O)=O)C2)cc1)c1cc(Cl)c(OCCCl)c(C#N)c1` [Compound A15, N-((1r,3r)-3-((4-(2-(3-chloro-4-(2-chloroethoxy)-5-cyanophenyl)propan-2-yl)phenoxy)methyl)cyclobutyl)methanesulfonamide], the IC50 at androgen receptor (AR) [1] fell in the range of 500 to 2000 nM. Besides, the half-life at 1 μM in series [2], in series [3], in series [4], in series [5] and in series [6] was more than 120 min each time.

In the case of `CS(=O)(=O)Nc1cnc2cc(-c3ccc(Oc4cc(Cl)c(OCCCl)c(C#N)c4)cc3)ccc2n1` [Compound A16, N-(6-(4-(3-chloro-4-(2-chloroethoxy)-5-cyanophenoxy)phenyl)quinoxalin-2-yl)methanesulfonamide], the IC50 at androgen receptor (AR) [1] lay within 500 to 2000 nM. The half-life at 1 μM in series [2], in series [3], in series [4], in series [5] and in series [6] was more than 120 min each time.

Turning to `COc1c(Cl)cc(C(C)(C)c2ccc(OCc3ccnc(NS(C)(=O)=O)n3)cc2)cc1C#N` [Compound A17, N-(4-((4-(2-(3-chloro-5-cyano-4-methoxyphenyl)propan-2-yl)phenoxy)methyl)pyrimidin-2-yl)methanesulfonamide], the IC50 on androgen receptor (AR) [1] was in the range of 500 to 2000 nM. The half-life at 1 μM in series [2], in series [3], in series [4], in series [5] and in series [6] was more than 120 min in each case.

For `CC(=O)N1CCN(c2cnc3cc(-c4ccc(Oc5cc(Cl)c(OC6CC6)c(C#N)c5)cc4)ccc3n2)CC1` [Compound A242], at androgen receptor (AR) [7], the half-maximal inhibitory concentration (IC50) is 500 to 2000 nM.

For `CC(C)(c1ccc(OCc2ccnc(N3CCNCC3)n2)cc1)c1cc(Cl)c(OC2CC2)c(C#N)c1` [Compound A243], the IC50 at androgen receptor (AR) [7] lay within 500 to 2000 nM.

For the compound `CC(=O)N1CCN(c2nccc(COc3ccc(C(C)(C)c4cc(Cl)c(OC5CC5)c(C#N)c4)cc3)n2)CC1` [Compound A244], on androgen receptor (AR) [7], the IC50 is less than 500 nM.

For the compound `CC(=O)N1CCN(c2nccc(COc3ccc(N(CC(F)(F)F)c4cc(Cl)c(OC5CC5)c(C#N)c4)cc3)n2)CC1` [Compound A245], the IC50 on androgen receptor (AR) [7] was less than 500 nM.

Take `CNC(=O)c1ccc(N2C(=S)N(c3ccc(C#N)c(C(F)(F)F)c3)C(=O)C2(C)C)cc1F` [Enzalutamide, enzalutamide, reference compound]: the half-life at 1 μM in series [2], in series [3], in series [4], in series [5] and in series [6] was more than 120 min throughout.

In the case of `CC(C)(c1ccc(OC[C@H](O)CNS(C)(=O)=O)cc1)c1cc(Cl)c(OC[C@H](O)CCl)c(Cl)c1` [X, reference compound], the half-life at 1 μM in series [4] is more than 120 min.
